Values after ≈ are worked out from the molar mass of the structure shown.
How the values were obtained:
[1] = system: Mycobacterium smegmatis ATCC 607; experiment: Minimal inhibitory concentration, agar dilution streak method; type: cell-based; settings: Mycolicibacterium smegmatis, ATCC607; nutrient agar, 37° C, 48 hours; read-out: Minimal inhibitory concentration
[2] = in vivo; settings: mouse, iv
[3] = system: Klebsiella pneumoniae PCI 602; experiment: Minimal inhibitory concentration, agar dilution streak method; type: cell-based; settings: PCI602, nutrient agar, 37° C, 18 hours
Protocol: (§1) [α]D^22 + 38°, (c 0.85, water).
(§2) *Agar Agar dilution streak method (nutrient agar, 37° C, 18 hours)
(§3) *Agar dilution streak method (nutrient agar, 37° C, 18 hours).

[4] = system: Sarcina lutea PCI 1001; experiment: as above; type: cell-based; settings: Micrococcus luteus, PCI1001; nutrient agar, 37° C, 18 hours; read-out: Minimal inhibitory concentration
Protocol: as §1, §2, §3

[5] = system: Pseudomonas aeruginosa 99; experiment: as above; type: cell-based; settings: nutrient agar, 37° C, 18 hours, read-out: Minimal inhibitory concentration
Protocol: as §1, §2, §3

[6] = system: Proteus rettgeri GN 311; experiment: as above; type: cell-based; settings: Providencia rettgeri, GN311; nutrient agar, 37° C, 18 hours
Protocol: as §1, §2, §3

[7] = system: Escherichia coli K-12 R-5; experiment: as above; type: cell-based; settings: K12R5, nutrient agar, 37° C, 18 hours
Protocol: as §1, §2, §3

[8] = system: Salmonella typhosa T-63; experiment: as above; type: cell-based; settings: Salmonella enterica, nutrient agar, 37° C, 18 hours
Protocol: as §1, §2, §3

[9] = system: Escherichia coli J 5 R 11-2; experiment: as above; type: cell-based; settings: J5R112, 18 h, read-out: Minimal inhibitory concentration
Protocol: as §1, §2, §3

[10] = system: Proteus rettgeri GN 466; experiment: as above; type: cell-based; settings: Providencia rettgeri, GN466; nutrient agar, 37° C, 18 hours
Protocol: as §1, §2, §3

[11] = system: Escherichia coli K-12 C 600 R 135; experiment: as above; type: cell-based; settings: 18 h, read-out: Minimal inhibitory concentration
Protocol: as §1, §2, §3

[12] = system: Escherichia coli NIHJ; experiment: as above; type: cell-based; settings: nutrient agar, 37° C, 18 hours
Protocol: as §1, §2, §3

[13] = system: Bacillus subtilis NRRL B-558; experiment: as above; type: cell-based; settings: NRRLB558, nutrient agar, 37° C, 18 hours
Protocol: as §1, §2, §3

[14] = system: gram-positive and gram-negative bacteria; experiment: Antibacterial activity (in words); type: cell-based; settings: sensitive (and resistant) bacteria
Protocol: as §1

[15] = system: Escherichia coli K-12 LA 290 R 55; experiment: Minimal inhibitory concentration, agar dilution streak method; type: cell-based; settings: 18 h, read-out: Minimal inhibitory concentration
Protocol: as §2, §3

[16] = system: Pseudomonas aeruginosa TI-13; experiment: as above; type: cell-based; settings: TI13, nutrient agar, 37° C, 18 hours, read-out: Minimal inhibitory concentration
Protocol: as §2, §3

[17] = system: Escherichia coli K-12 ML 1410 R 81; experiment: as above; type: cell-based; settings: 18 h, read-out: Minimal inhibitory concentration
Protocol: as §2, §3

[18] = system: Escherichia coli K-12 W 677; experiment: as above; type: cell-based; settings: K12W677, nutrient agar, 37° C, 18 hours, read-out: Minimal inhibitory concentration
Protocol: as §2, §3

[19] = system: Escherichia coli K-12 ML 1410; experiment: as above; type: cell-based; settings: K12ML1410, nutrient agar, 37° C, 18 hours, read-out: Minimal inhibitory concentration
Protocol: as §2, §3

[20] = system: Escherichia coli K-12; experiment: as above; type: cell-based; settings: K12, nutrient agar, 37° C, 18 hours, read-out: Minimal inhibitory concentration
Protocol: as §2, §3

[21] = system: Klebsiella pneumoniae type 22 #3038; experiment: as above; type: cell-based; settings: for MIC: Klebsiella pneumoniae, nutrient agar, 37° C, 18 hours
Protocol: as §2, §3

[22] = system: Escherichia coli K-12 LA 290 R 64; experiment: as above; type: cell-based; settings: nutrient agar, 37° C, 18 hours, read-out: Minimal inhibitory concentration
Protocol: as §2, §3

[23] = system: Escherichia coli K-12 ML 1629; experiment: as above; type: cell-based; settings: K12ML1629, nutrient agar, 37° C, 18 hours, read-out: Minimal inhibitory concentration
Protocol: as §2, §3

[24] = system: Escherichia coli K-12 LA 290 R 56; experiment: as above; type: cell-based; settings: 18 h, read-out: Minimal inhibitory concentration
Protocol: as §2, §3

[25] = system: Escherichia coli K-12 JR 66/W 677; experiment: as above; type: cell-based
Protocol: as §2, §3

[26] = system: Escherichia coli K-12 ML 1630; experiment: as above; type: cell-based; settings: K12ML1630, nutrient agar, 37° C, 18 hours, read-out: Minimal inhibitory concentration
Protocol: as §2, §3

[27] = system: Pseudomonas aeruginosa A 3; experiment: as above; type: cell-based; settings: A3, nutrient agar, 37° C, 18 hours, read-out: Minimal inhibitory concentration
Protocol: as §2, §3

[28] = system: Pseudomonas aeruginosa GN 315; experiment: as above; type: cell-based; settings: GN315, nutrient agar, 37° C, 18 hours, read-out: Minimal inhibitory concentration
Protocol: as §2, §3

[29] = system: Pseudomonas aeruginosa No.12; experiment: as above; type: cell-based; settings: nutrient agar, 37° C, 18 hours, read-out: Minimal inhibitory concentration
Protocol: as §2, §3

[30] = system: Staphylococcus aureus FDA 209P; experiment: as above; type: cell-based; settings: FDA209P, nutrient agar, 37° C, 18 hours, read-out: Minimal inhibitory concentration
Protocol: as §2, §3

[31] = system: kanamycin-resistant strains; settings: strains producing 3'-hydroxyl phosphorylating enzyme; cited from earlier work
[32] = strain resistant to butirosin B

| SMILES | MIC [1] [µg/mL] | MIC [3] [µg/mL] | MIC [4] [µg/mL] | MIC [5] [µg/mL] | MIC [6] [µg/mL] | MIC [7] [µg/mL] | MIC [8] [µg/mL] | MIC [9] [µg/mL] | MIC [10] [µg/mL] | MIC [11] [µg/mL] | MIC [12] [µg/mL] | MIC [13] [µg/mL] | MIC [15] [µg/mL] | MIC [16] [µg/mL] | MIC [17] [µg/mL] | MIC [18] [µg/mL] | MIC [19] [µg/mL] | MIC [20] [µg/mL] | MIC [21] [µg/mL] | MIC [22] [µg/mL] | other results |
| --- | --- | --- | --- | --- | --- | --- | --- | --- | --- | --- | --- | --- | --- | --- | --- | --- | --- | --- | --- | --- | --- |
| NCC[C@H](O)C(=O)N[C@@H]1C[C@H](N)[C@@H](O[C@H]2O[C@H](CN)CC[C@H]2N)[C@H](O[C@@H]2O[C@H](CO)[C@@H](O)[C@H]2O)[C@H]1O [AHB-dideoxyribostamycin, 1-N-[(S)-4-amino-2-hydroxybutyryl]-3',4'-dideoxyribostamycin] | < 0.39 | 0.78 (≈ 1.49 µM) | 25 (≈ 47.7 µM) | 25 (≈ 47.7 µM) | 12.5 (≈ 23.9 µM) | 6.25 (≈ 11.9 µM) | 0.39 (≈ 0.745 µM) | < 0.39 | 3.12 (≈ 5.96 µM) | 0.78 (≈ 1.49 µM) | 1.56 (≈ 2.98 µM) | < 0.39 | 1.56 (≈ 2.98 µM) | 12.5 (≈ 23.9 µM) | 1.56 (≈ 2.98 µM) | 0.78 (≈ 1.49 µM) | 0.78 (≈ 1.49 µM) | 1.56 (≈ 2.98 µM) | 3.12 (≈ 5.96 µM) | 1.56 (≈ 2.98 µM) | LD50 [2]: > 100 mg/kg; antibacterial activity compared with parent or reference substance [14]: strongly enhanced antibacterial activity as compared with that of ribostamycin and 3',4'-dideoxyribostamycin and was comparable to that of butirosin B; effectiveness against Klebsiella pneumoniae type 22 #3038 [21, 32]: effective; MIC [23]: 1.56 µg/mL (≈ 2.98 µM); MIC [24]: < 0.39 µg/mL; effectiveness against Escherichia coli K-12 JR 66/W 677 [25, 32]: effective; MIC [26]: 0.78 µg/mL (≈ 1.49 µM); MIC [27]: 6.25 µg/mL (≈ 11.9 µM); MIC [28]: > 100 µg/mL; MIC [29]: 6.25 µg/mL (≈ 11.9 µM); MIC [30]: 1.56 µg/mL (≈ 2.98 µM) |
| NC[C@H]1O[C@H](O[C@H]2[C@H](O)[C@@H](O)[C@H](N)C[C@@H]2N)[C@H](N)[C@@H](O)[C@@H]1O [Neamine, neamine] | 12.5 (≈ 38.8 µM) | 12.5 (≈ 38.8 µM) | > 100 | > 100 | 100 (≈ 310 µM) | > 100 | 3.12 (≈ 9.68 µM) | > 100 | 25 (≈ 77.6 µM) | 12.5 (≈ 38.8 µM) | 12.5 (≈ 38.8 µM) | 0.78 (≈ 2.42 µM) | 5.25 (≈ 16.3 µM) | > 100 | > 100 | 6.25 (≈ 19.4 µM) | 12.5 (≈ 38.8 µM) | 6.25 (≈ 19.4 µM) | > 100 | 6.25 (≈ 19.4 µM) | MIC [23]: > 100 µg/mL; MIC [24]: 12.5 µg/mL (≈ 38.8 µM); MIC ([25]; Escherichia coli, 18 h, read-out: Minimal inhibitory concentration): > 100 µg/mL; MIC [26]: > 100 µg/mL; MIC [27]: > 100 µg/mL; MIC [28]: > 100 µg/mL; MIC [29]: > 100 µg/mL; MIC [30]: 6.25 µg/mL (≈ 19.4 µM) |
| NCC1OC(OC2C(N)CC(N)C(OC3OC(CO)C(O)C(N)C3O)C2O)C(O)CC1O (stereo not drawn) [3'-deoxykanamycin] |  |  |  |  |  |  |  |  |  |  |  |  |  |  |  |  |  |  |  |  | activity against kanamycin-resistant strains [31]: actually effective |

Source: patent publication US4107424A, “1-N-[(S)-α-hydroxy-ω-aminoacyl] derivatives of 3',4'-dideoxykanamycin B and 3'-deoxykanamycin B antibiotics” (Zaidan Hojin Biseibutsu Kagaku Kenkyu Kai, priority 1972, dated 1978)
